Laboratory results published in US20090068290A1, “BIFEPRUNOX DOSES FOR TREATING SCHIZOPHRENIA” (priority 2006, published 2009).

Key:
[1] = system: adult subjects with schizophrenia; assay: CGI Improvement score, Clinical Study One; format: in vivo, human; conditions: 6 mg
Method: There were five treatment groups in this study. […] Study medication was administered once daily. After Baseline measurements were performed, the titration phase was begun. Bifeprunox treated subjects were titrated up to 5 mg, 10 mg or 20 mg according to a standardized titration schedule (Day 1: 0.125 mg, Day 2: 0.25 mg, Day 3: 0.5 mg, Day 4: 1.0 mg, Day 5: 2.0 mg, Day 6: 5.0 mg, Day 7: 10.0 mg, Day 8: 20 mg). When the assigned dose was reached, subjects were maintained at that dose for the remainder of the six-week treatment period.
The change in the Positive and Negative Symptom Scale (PANSS) total score, from baseline to endpoint, was the primary outcome measure. Secondary efficacy measures included: PANSS positive, PANSS negative, PANSS general psychopathology (GPP) score, PANSS-derived Brief Psychiatric Rating Scale (BPRS) score, Clinical Global Impressions-Severity of Illness (CGI-S), CGI-Improvement (CGI-I) scores, and responder rates. Safety and tolerability evaluations included extrapyramidal symptoms (EPS), weight gain, lipid profile, and serum prolactin.

[2] = system: adult subjects with schizophrenia; assay: BPRS total score, Clinical Study Two; format: in vivo, human; conditions: LOCF; for Change from Baseline in BPRS Total Score, Mean (SD) / Change from Baseline in BPRS Total Score, Median: Risperidone 6 mg, ITT population
Method: Rating scale assessments were performed weekly, except for week 5, to measure the change from baseline to endpoint of the PANSS total score. Other assessments included: PANSS positive symptom subscale score, PANSS negative symptom subscale score, PANSS general pschopathology subscale score, BPRS total score, BPRS psychosis score, the CGI-S score, the CGI-I score, responder rates based on the PANSS total score, and the Calgary Depression Scale for Schizophrenia (CDSS). […]
Subjects who completed this study had the option to continue in the long-term. […] Blood samples were also obtained at Screening/Baseline, Week 3, and Week 6 for clinical laboratory assessments.

[3] = Body weight, Clinical Study One; format: in vivo, human; conditions: Risperidone 6 mg
Method: Statistical testing of the change from Baseline in weight was performed using similar methodology to that used for the secondary efficacy parameters (an ANCOVA model with factors for treatment and weight at Baseline). Pairwise comparisons of the bifeprunox treatment groups versus placebo were all statistically significant (bifeprunox 5 mg [p=0.025], bifeprunox 10 mg [p=0.009] and bifeprunox 20 mg [p=0.031] for the difference between bifeprunox and placebo mean change from Baseline in weight at Endpoint.

[4] = system: adult subjects with schizophrenia; assay: PANSS responder rates, Clinical Study Three; format: in vivo, human
Method: There were four treatment arms in this study, approximately 144 subjects per arm. […] After completing the Single-Blind Placebo Lead-in Period of at least three days, bifeprunox-treated subjects were titrated from 0.25 mg up to 20 mg/day or 30 mg/day according to a standardized titration scheme over a seven- or eight-day period, respectively. When the assigned dose was reached, subjects were maintained at that dose for the remainder of the six week treatment period. […] Subjects were hospitalized (if not already inpatients) after eligibility for study entry was verified, starting from the Screening Visit until at least 10 days after Baseline. Subjects could be hospitalized longer than 10 days if considered medically necessary by the Investigator. Rating scale assessments for efficacy and abnormal movement disorders were done weekly except for Week 5. Safety assessments were performed at Screening, during treatment and at the end of the study. Subject satisfaction with study medication was assessed at Week 6. Samples of whole blood were obtained at Weeks 2, 4, and 6 for determination of bifeprunox in plasma.
CLINICAL STUDY THREE. A PANSS responder was defined as a subject whose PANSS total score decreased by 20% or more from Baseline to Endpoint. As exploratory analyses, responder rates were also analyzed using a 30%, 35%, 40%, and 50% definition of responder.

[5] = Clinical laboratory assessments (prolactin), Clinical Study Three; conditions: olanzapine 15 mg; 6 weeks
Source text: To assess the safety and tolerability of bifeprunox using physical examination, weight, waist circumference, vital signs (pulse rate and systolic/diastolic blood pressure [BP], and oral temperature), 12-lead electrocardiogram (ECG), clinical laboratory assessments (hematology, biochemistry including fasting insulin level, fasting glucose, fasting lipid profile, urinalysis, special laboratory assessments for prolactin, IGF-1, IGFBP-3, and thyroid function), need for anticholinergic treatment during double-blind treatment period, concomitant medication use, adverse event (AE) monitoring, and assessments of abnormal movement including the Simpson-Angus Scale (SAS), Barnes Akathisia Scale (BAS), and Abnormal Involuntary Movement Scale (AIMS).

## Cc1nc2n(c(=O)c1CCN1CCC(c3noc4cc(F)ccc34)CC1)CCCC2 [Risperidone, risperidone, reference compound]
[1]; Endpoint LOCF
  Actual Value of CGI Improvement Score, Mean (S.D.): 3.02 (1.21)
  Actual Value of CGI Improvement Score, Median: 3.0
[1]; Week 1, LOCF
  Actual Value of CGI Improvement Score, Mean (S.D.): 3.43 (0.97)
  Actual Value of CGI Improvement Score, Median: 3.0
[1]; Week 2, LOCF
  Actual Value of CGI Improvement Score, Median: 3.0
[1]; Week 3, LOCF
  Actual Value of CGI Improvement Score, Mean (S.D.): 2.97 (1.05)
  Actual Value of CGI Improvement Score, Median: 3.0
[1]; Week 4, LOCF
  Actual Value of CGI Improvement Score, Mean (S.D.): 3.05 (1.11)
  Actual Value of CGI Improvement Score, Median: 3.0
[2]; Week 1
  Change from Baseline in BPRS Total Score, Mean (SD): −5.5 (6.3)
  Change from Baseline in BPRS Total Score, Median: −5
[2]; Week 2
  Change from Baseline in BPRS Total Score, Mean (SD): −9.1 (8.5)
  Change from Baseline in BPRS Total Score, Median: −9
[2]; Week 3
  Change from Baseline in BPRS Total Score, Mean (SD): −10.7 (9.4)
  Change from Baseline in BPRS Total Score, Median: −11
[2]; Week 4
  Change from Baseline in BPRS Total Score, Median: −13
[2]; Week 6/Endpoint
  Change from Baseline in BPRS Total Score, Mean (SD): −12.2 (11.7)
  Change from Baseline in BPRS Total Score, Median: −13
[2]; risperidone 6 mg, ITT
  mean change (SD) from Baseline to Endpoint in BPRS total score: −12.2 (11.7)
[3]
  mean weight change (increase): 4.8 lb
  subjects who decreased their weight by ≧7%: No subjects
  subjects who increased their weight by ≧7%: 13%

## Cc1cc2c(s1)Nc1ccccc1N=C2N1CCN(C)CC1 [Olanzapine, olanzapine, reference compound]
[4]; 15 mg, Week 6/Endpoint, LOCF
  PANSS 20% definition response rate No, %: 46%
  PANSS 20% definition response rate Yes, %: 54%
[4]; olanzapine 15 mg, Endpoint LOCF
  20% PANSS responder rate: 54%
[5]
  prolactin: increases in prolactin
